test system: NCI-H1417 cells; test: Cell growth suppression test (CellTiter-Glo Luminescent Cell Viability Assay, 10 days treatment); format: cell-based; conditions: Homo sapiens, 240 h, treated for 10 days
Description: Cell growth suppression effects of the synthesized compounds on NCI-H1417 cells were identified. The cells were treated with the synthesized compounds for 10 days. Then, in order to test the cell growth suppression, CellTiter-Glo Luminescent Cell Viability Assay (available from Promega, USA) was used. This test is to measure emission signals proportional to the number of ATPs based on a fixed amount of ATPs, which represents the presence of metabolically active cells, thereby determining the number of viable cells. The results are expressed as a Gl50 value. As for a control, GSK2879552 (available from GlaxoSmithKline USA) was used.

SMILES | GI50 [nM]
O=C(O)c1ccc(CN2CCC(CN[C@@H]3C[C@H]3c3ccccc3)CC2)cc1 [Control, GSK2879552, reference compound] | 311
N#Cc1ccc(-c2nc3c(N4CCC[C@@H](N)C4)ccnc3n2-c2ccc(OC3CCCC3)cc2F)cc1F [Example 30] | 62
CN1CCN(c2ccc(-n3c(-c4ccc(C#N)c(F)c4)nc4c(N5CCC[C@@H](N)C5)ccnc43)c(F)c2)CC1 [Example 34] | 101
N#Cc1ccc(-c2nc3c(N4CCC[C@@H](N)C4)ccnc3n2-c2cccc(OCCN3CCOCC3)c2)cc1F [Example 37, (R)-4-(7-(3-aminopiperidine-1-yl)-3-(3-(2-morpholinoethoxy)phenyl)-3H-imidazo[4,5-b]pyridine-2-yl)-2-fluorobenzonitrile] | 148
N#Cc1ccc(-c2nc3c(N4CCC[C@@H](N)C4)ccnc3n2-c2ccc(C(=O)N3CCOCC3)cc2)cc1F [Example 38, (R)-4-(7-(3-aminopiperidine-1-yl)-3-(4-(morpholino-4-carbonyl)phenyl)-3H-imidazo[4,5-b]pyridine-2-yl)-2-fluorobenzonitrile] | 612
CC(C)c1ccc(-n2c(-c3ccc(C#N)c(F)c3)nc3c(N4CCC[C@@H](N)C4)ccnc32)cc1 [Example 43, (R)-4-(7-(3-aminopiperidine-1-yl)-3-(4-isopropylphenyl)-3H-imidazo[4,5-b]pyridine-2-yl)-2-fluorobenzonitrile] | 60
Cn1ccc2cc(-n3c(-c4ccc(C#N)c(F)c4)nc4c(N5CCC[C@@H](N)C5)ccnc43)ccc21 [Example 44, (R)-4-(7-(3-aminopiperidine-1-yl)-3-(1-methyl-1H-indole-5-yl)-3H-imidazo(4,5-b)pyridine-2-yl)-2fluorobenzonitrile] | 171
Cc1ccc(-n2c(-c3ccc(C#N)c(F)c3)nc3c(N4CCC[C@@H](N)C4)ccnc32)nc1 [Example 45, (R)-4-(7-(3-aminopiperidine-1-yl)-3-(5-methylpyridine-2-yl)-3H-imidazo[4,5-b]pyridine-2-yl)-2-fluorobenzonitrile] | 171
N#Cc1ccc(-c2nc3c(N4CCC[C@@H](N)C4)ccnc3n2-c2ccc(C3CCCCC3)cc2)cc1F [Example 46, (R)-4-(7-(3-aminopiperidine-1-yl)-3-(4-cyclohexylphenyl)-3H-imidazo[4,5-b]pyridine-2-yl)-2-fluorobenzonitrile] | 303
C=Cc1cccc(-n2c(-c3ccc(C#N)c(F)c3)nc3c(N4CCC[C@@H](N)C4)ccnc32)c1 [Example 47, (R)-4-(7-(3-aminopiperidine-1-yl)-3-(3-vinylphenyl)-3H-imidazo[4,5-b]pyridine-2-yl)-2-fluorobenzonitrile] | 360
CCCCCCc1ccc(-n2c(-c3ccc(C#N)c(F)c3)nc3c(N4CCC[C@@H](N)C4)ccnc32)cc1 [Example 51, (R)-4-(7-(3-aminopiperidine-1-yl)-3-(4-hexylphenyl)-3H-imidazo[4,5-b]pyridine-2-yl)-2-fluorobenzonitrile] | 242
COc1cc(C#N)ccc1-c1nc2c(N3CCC[C@@H](N)C3)ccnc2n1-c1ccc(N2CC[C@H](OC)C2)cc1F [Example 53, 4-(7-((R)-3-aminopiperidine-1-yl)-3-(2-fluoro-4-((S)-3-methoxypyrrolidine-1-yl)phenyl)-3H-imidazo[4,5-b]pyridine-2-yl)-3-methoxybenzonitrile] | > 1000
CN(C)C1CCN(c2ccc(-n3c(-c4ccc(C#N)c(F)c4)nc4c(N5CCC[C@@H](N)C5)ccnc43)c(F)c2)C1 (stereo partly drawn) [Example 57, 4-(7-((R)-3-aminopiperidine-1-yl)-3-(4-(3-(dimethylamino)pyrrolidine-1-yl)-2-fluorophenyl)-3H-imidazo[4,5-b]pyridine-2-yl)-2-fluorobenzonitrile] | 53
N#Cc1ccc(-c2nc3c(N4CCC[C@@H](N)C4)ccnc3n2-c2ccc3scnc3c2)cc1F [Example 58, (R)-4-(7-(3-aminopiperidine-1-yl)-3-(benzo[d]thiazole-5-yl)-3H-imidazo[4,5-b]pyridine-2-yl)-2-fluorobenzonitrile] | 64
CO[C@H]1CCN(c2ccc(-n3c(-c4ccc(C#N)c(F)c4)nc4c(N5C6CCC5CC(N)C6)ccnc43)c(F)c2)C1 (stereo partly drawn) [Example 63, 4-(7-(3-amino-8-azabicyclo[3.2.1]octane-8-yl)-3-(2-fluoro-4-((S)-3-methoxypyrrolidine-1-yl)phenyl)-3H-imidazo[4,5-b]pyridine-2-yl)-2-fluorobenzonitrile] | 290

Stronger by GI50, values ahead:

GI50 [nM] | SMILES
44 | N#Cc1ccc(-c2nc3c(N4CCC[C@@H](N)C4)ccnc3n2-c2ccc(N3CCOCC3)cc2F)cc1F [Example 33, (R)-4-(7-(3-aminopiperidine-1-yl)-3-(2-fluoro-4-morpholinophenyl)-3H-imidazo[4,5-b]pyridine-2-yl)-2-fluorobenzonitrile]
42 | N#Cc1ccc(-c2nc3c(N4CCC[C@@H](N)C4)ccnc3n2-c2ccc(O)cc2)cc1F [Example 40, (R)-4-(7-(3-aminopiperidine-1-yl)-3-(4-hydroxyphenyl)-3H-imidazo[4,5-b]pyridine-2-yl)-2-fluorobenzonitrile]
30 | CO[C@H]1CCN(c2ccc(-n3c(-c4ccc(C#N)cc4F)nc4c(N5CCC[C@@H](N)C5)ccnc43)c(F)c2)C1 [Example 52, 4-(7-((R)-3-aminopiperidine-1-yl)-3-(2-fluoro-4-((S)-3-methoxypyrrolidine-1-yl)phenyl)-3H-imidazo[4,5-b]pyridine-2-yl)-3-fluorobenzonitrile]
27 | CCN(CC)c1ccc(-n2c(-c3ccc(C#N)c(F)c3)nc3c(N4CCC[C@@H](N)C4)ccnc32)cc1 [Example 21, (R)-4-(7-(3-aminopiperidine-1-yl)-3-(4-(diethylamino)phenyl)-3H-imidazo[4,5-b]pyridine-2-yl)-2-fluorobenzonitrile]
26 | N#Cc1ccc(-c2nc3c(N4CCC[C@@H](N)C4)ccnc3n2-c2ccc3c(c2)CCC3)cc1F [Example 42, (R)-4-(7-(3-aminopiperidine-1-yl)-3-(2,3-dihydro-1H-indene-5-yl)-3H-imidazo[4,5-b]pyridine-2-yl)-2-fluorobenzonitrile]
23 | COCCCN(C)c1ccc(-n2c(-c3ccc(C#N)c(F)c3)nc3c(N4CCC[C@@H](N)C4)ccnc32)cc1 [Example 48, (R)-4-(7-(3-aminopiperidine-1-yl)-3-(4-((3-methoxypropyl)(methyl)amino)phenyl)-3H-imidazo[4,5-b]pyridine-2-yl)-2-fluorobenzonitrile]
21 | Cn1ccc2cc(-n3c(-c4ccc(C#N)c(F)c4)nc4c(N5CCC[C@@H](N)C5)ccnc43)cnc21 [Example 54, (R)-4-(7-(3-aminopiperidine-1-yl)-3-(1-methyl-1H-pyrrolo[2,3-b]pyridine-5-yl)-3H-imidazo[4,5-b]pyridine-2-yl)-2-fluorobenzonitrile]
14 | CO[C@H]1CCCN(c2ccc(-n3c(-c4ccc(C#N)c(F)c4)nc4c(N5CCC[C@@H](N)C5)ccnc43)c(F)c2)C1 [Example 56]
7.9 | Cn1ncc2cc(-n3c(-c4ccc(C#N)c(F)c4)nc4c(N5CCC[C@@H](N)C5)ccnc43)ccc21 [Example 55, (R)-4-(7-(3-aminopiperidine-1-yl)-3-(1-methyl-1H-indazole-5-yl)-3H-imidazo[4,5-b]pyridine-2-yl)-2-fluorobenzonitrile]
